Assay [1] has as its system KP1004 (KPC-2). The assay is described as follows: Aztreonam potentiation (MPC@4), KP1004. Format: cell-based. Particulars: BLI with aztreonam at 4 μg/mL.
The next assay concerns the target CTX-M-14 (Escherichia coli, UniProt Q9L5C7). The assay is described as follows: Ki, nitrocefin cleavage by purified enzyme, CTX-M-14. Format: biochemical. Particulars: nitrocefin reporter substrate; read-out: Ki (CTX-M-14, NCF). As to the method: (§1) Purified enzymes were mixed with various concentrations of inhibitors in reaction buffer and incubated for 10 min at room temperature. Nitrocefin was added and substrate cleavage profiles were recorded at 490 nm every 10 sec for 10 min.

Assay [2] concerns ECL1002. The assay is described as follows: Aztreonam potentiation (MPC@4), ECL1002. Format: cell-based. The note with it: BLI with aztreonam at 4 μg/mL.
Assay [3] concerns ec302 (TEM-10). The assay is described as follows: Aztreonam potentiation (MPC@4), ec302. The note with it: BLI with aztreonam at 4 μg/mL. Type of assay: cell-based.
The test system of assay [4] is ec302 (TEM-10). The assay is described as follows: Tigemonam potentiation (MPC@4), ec302. Format: cell-based.
In the next assay the target is SHV-12 (Klebsiella pneumoniae, UniProt P0AD64, E235K/G234S/L31Q). The assay is described as follows: Ki, nitrocefin cleavage by purified enzyme, SHV-12. Particulars: nitrocefin reporter substrate; read-out: Ki (SHV-12, NCF). Type of assay: biochemical. As to the method:
as §1

The next assay relates to KP1010 (SHV-12). The assay is described as follows: Tigemonam potentiation (MPC@4), KP1010. Format: cell-based.
The next assay deals with ec308 (SHV-5). The assay is described as follows: Tigemonam potentiation (MPC@4), ec308. Format: cell-based.
For the next assay, the system named is KP1005 (CTX-M-14). The assay is described as follows: Tigemonam potentiation (MPC@4), KP1005. The note with it: BLI with tigemonam at 4 μg/mL. Type of assay: cell-based.
In assay [5] the test system is KP1004 (KPC-2). The assay is described as follows: Biapenem potentiation (MPC@1), KP1004. The note with it: BLI with biapenem at 1 μg/mL.
Another assay has as its target KPC-2 (Klebsiella pneumoniae, UniProt Q9F663). The assay is described as follows: Ki, nitrocefin cleavage by purified enzyme, KPC-2. Type of assay: biochemical. Particulars: nitrocefin reporter substrate; read-out: Ki (KPC-2, NCF). As to the method: as §1
Assay [6] concerns ECL1002. The assay is described as follows: Tigemonam potentiation (MPC@4), ECL1002. Format: cell-based. The note with it: BLI with tigemonam at 4 μg/mL.
Assay [7] relates to EC1010 (CMY-6). The assay is described as follows: organism not typed. Type of assay: cell-based.
A further assay deals with P99 (Enterobacter cloacae, UniProt P05364). The assay is described as follows: Ki, nitrocefin cleavage by purified enzyme, P99. Format: biochemical. Particulars: nitrocefin reporter substrate; read-out: Ki (P99, NCF). The protocol: as §1
P99, sequence (P05364 21-381): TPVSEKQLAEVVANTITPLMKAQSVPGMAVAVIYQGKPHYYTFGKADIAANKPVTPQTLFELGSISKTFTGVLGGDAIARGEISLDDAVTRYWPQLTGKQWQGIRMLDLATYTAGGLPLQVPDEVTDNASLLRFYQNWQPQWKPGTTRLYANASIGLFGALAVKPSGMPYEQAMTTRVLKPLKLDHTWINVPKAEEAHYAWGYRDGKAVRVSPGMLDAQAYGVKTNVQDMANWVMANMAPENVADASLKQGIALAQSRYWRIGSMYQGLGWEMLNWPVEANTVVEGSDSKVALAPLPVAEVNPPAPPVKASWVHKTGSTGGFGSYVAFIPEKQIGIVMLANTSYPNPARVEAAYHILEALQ
The subject of assay [8] is EC1010 (CMY-6). The assay is described as follows: Tigemonam potentiation (MPC@4), EC1010. Type of assay: cell-based. The note with it: BLI with tigemonam at 4 μg/mL.
A further assay concerns KP1086 (OXA-48). The assay is described as follows: Biapenem potentiation (MPC@1), KP1086. Particulars: BLI with biapenem at 1 μg/mL.
The next assay relates to KP1009 (CTX-M-15). The assay is described as follows: Tigemonam potentiation (MPC@4), KP1009. Format: cell-based. Particulars: BLI with tigemonam at 4 μg/mL.
A further assay has as its target Pa AmpC (Pseudomonas aeruginosa, UniProt P24735). The assay is described as follows: Ki, nitrocefin cleavage by purified enzyme, Pa AmpC. Particulars: nitrocefin reporter substrate; read-out: Ki (Pa AmpC, NCF). Format: biochemical. The protocol: Ki values of inhibition of purified class A, C and D enzymes were determined spectrophotometrically using nitrocefin as reporter substrate. Purified enzymes were mixed with various concentrations of inhibitors in reaction buffer and incubated for 10 min at room temperature. Nitrocefin was added and substrate cleavage profiles were recorded at 490 nm every 10 sec for 10 min. These experiments confirmed that the described compounds are inhibitors with a broad-spectrum of activity towards various β-lactamases.

For a further assay, the target named is OXA-48 (Klebsiella pneumoniae, UniProt Q6XEC0). The assay is described as follows: Ki, nitrocefin cleavage by purified enzyme, OXA-48. Particulars: nitrocefin reporter substrate; read-out: Ki (OXA-48, NCF). Format: biochemical. The protocol: as §1
OXA-48, sequence (Q6XEC0 23-265, looked up, species assumed): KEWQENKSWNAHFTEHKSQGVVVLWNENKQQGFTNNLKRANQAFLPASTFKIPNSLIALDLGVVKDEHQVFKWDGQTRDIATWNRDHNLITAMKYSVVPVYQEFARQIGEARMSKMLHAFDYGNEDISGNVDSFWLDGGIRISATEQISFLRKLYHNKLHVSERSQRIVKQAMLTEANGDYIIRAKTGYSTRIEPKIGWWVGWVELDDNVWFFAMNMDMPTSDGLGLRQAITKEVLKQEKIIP

SMILES strings stand for the structures.

For orientation: Ki means a measure of affinity in units of concentration, obtained from inhibition or displacement.

SHV-12, sequence (P0AD64 22-286 L31Q/G234S/E235K): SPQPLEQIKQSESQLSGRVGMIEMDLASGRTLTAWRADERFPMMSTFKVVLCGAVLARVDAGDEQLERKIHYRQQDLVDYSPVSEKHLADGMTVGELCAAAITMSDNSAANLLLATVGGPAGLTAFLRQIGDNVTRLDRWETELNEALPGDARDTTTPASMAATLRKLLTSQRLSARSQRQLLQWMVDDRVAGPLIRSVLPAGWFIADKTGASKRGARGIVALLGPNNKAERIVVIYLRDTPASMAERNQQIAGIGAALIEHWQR
CTX-M-14, sequence (Q9L5C7 29-291): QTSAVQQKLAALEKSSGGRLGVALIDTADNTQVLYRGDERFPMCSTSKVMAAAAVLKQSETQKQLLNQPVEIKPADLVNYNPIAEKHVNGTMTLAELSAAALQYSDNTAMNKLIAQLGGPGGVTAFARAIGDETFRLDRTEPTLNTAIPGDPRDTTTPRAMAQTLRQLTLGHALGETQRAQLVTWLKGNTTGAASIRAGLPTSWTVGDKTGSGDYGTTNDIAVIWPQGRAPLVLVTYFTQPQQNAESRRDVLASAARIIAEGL
KPC-2, sequence (Q9F663 25-293, looked up, species assumed): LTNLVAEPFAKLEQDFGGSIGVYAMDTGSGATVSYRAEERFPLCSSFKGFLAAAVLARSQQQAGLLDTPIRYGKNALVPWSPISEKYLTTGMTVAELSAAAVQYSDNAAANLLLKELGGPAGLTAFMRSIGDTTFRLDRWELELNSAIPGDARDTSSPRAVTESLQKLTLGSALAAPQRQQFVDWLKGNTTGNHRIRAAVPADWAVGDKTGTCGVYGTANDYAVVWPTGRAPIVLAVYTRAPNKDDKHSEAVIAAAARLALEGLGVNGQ
Pa AmpC, sequence (P24735 27-397): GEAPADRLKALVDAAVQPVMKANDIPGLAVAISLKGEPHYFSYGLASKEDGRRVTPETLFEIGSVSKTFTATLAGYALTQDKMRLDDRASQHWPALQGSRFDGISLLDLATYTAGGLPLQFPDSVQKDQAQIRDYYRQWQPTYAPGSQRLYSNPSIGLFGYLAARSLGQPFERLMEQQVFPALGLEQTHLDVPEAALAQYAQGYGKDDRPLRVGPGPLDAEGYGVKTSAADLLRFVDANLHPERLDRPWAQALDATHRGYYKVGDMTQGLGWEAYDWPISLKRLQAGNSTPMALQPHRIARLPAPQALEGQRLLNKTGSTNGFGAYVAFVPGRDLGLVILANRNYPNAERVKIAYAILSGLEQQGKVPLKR

Turning to `CSCC(=O)N[C@H]1Cc2ccc(SCC(N)=O)c(C(=O)O)c2OB1O` [Compound 22, (R)-7-(2-amino-2-oxoethylthio)-2-hydroxy-3-(2-(methylthio)acetamido)-3,4-dihydro-2H-benzo[e][1,2]oxaborinine-8-carboxylic acid], the “AZT MPC4 KPC-2 KP1004” value in the assay on KP1004 (KPC-2) [1] is listed as “Y (MIC of 1 μg/mL to 10 μg/mL)”. The Ki at CTX-M-14 was under 1 nM; on SHV-12 it was under 1 nM; on KPC-2, over 10 nM; at P99 it was over 10 nM; on Pa AmpC, over 10 nM. In the assay on ECL1002 [2], the “AZT MPC4 ECL1002” value is recorded as “Y (MIC of 1 μg/mL to 10 μg/mL)”. In the assay with ec302 (TEM-10) [3], the “AZT MPC4 TEM-10 ec302” value was “Y (MIC of 1 μg/mL to 10 μg/mL)”. In the assay with ec302 (TEM-10) [4], the “TIG MPC4 TEM-10 ec302” value was “Y (key: X: MIC of less than 1 ng/mL; Y: MIC of 1 μg/mL to 10 μg/mL; Z: MIC of greater than 10 μg/mL)”. Further, in the assay on KP1010 (SHV-12), the “TIG MPC4 SHV-12 KP1010” value is on record as “X (key: X: MIC of less than 1 μg/mL; Y: MIC of 1 μg/mL to 10 μg/mL; Z: MIC of greater than 10 μg/mL)”. Also, the “TIG MPC4 SHV-5 ec308” value in the assay on ec308 (SHV-5) is “X (key: X: MIC of less than 1 μg/mL; Y: MIC of 1 μg/mL to 10 μg/mL; Z: MIC of greater than 10 μg/mL)”. For the same compound, the “TIG MPC4 CTX-M-14 KP1005” value in the assay on KP1005 (CTX-M-14) is reported as “X (MIC of less than 1 μg/mL)”. For the same compound, the “BPM MPC1 KP1004 KPC-2” value in the assay with KP1004 (KPC-2) [5] is given as “X (MIC of less than 1 μg/mL)”. The “TIG MPC4 ECL1002” value with ECL1002 [6] is recorded as “Y (MIC of 1 μg/mL to 10 μg/mL)”. Also, the “AZT MPC4 CMY-6 EC1010” value in the assay with EC1010 (CMY-6) [7] is “Y (key: X: MIC of less than 1 ng/mL; Y: MIC of 1 μg/mL to 10 μg/mL; Z: MIC of greater than 10 μg/mL)”. Besides, in the assay on EC1010 (CMY-6) [8], the “TIG MPC4 CMY-6 EC1010” value is given as “X (MIC of less than 1 μg/mL)”. Besides, in the assay on KP1086 (OXA-48), the “BPM MPC1 OXA-48 KP1086” value was “Z (MIC of greater than 10 μg/mL)”. For the same compound, the “TIG MPC4 CTX-M-15 KP1009” value in the assay with KP1009 (CTX-M-15) is “X (MIC of less than 1 μg/mL)”.
On to `CSCC(=O)N[C@H]1Cc2cc(F)c(F)c(C(=O)O)c2OB1O` [Compound 36, (R)-6,7-difluoro-2-hydroxy-3-(2-(methylthio)acetamido)-3,4-dihydro-2H-benzo[e][1,2]oxaborinine-8-carboxylic acid], for which the “AZT MPC4 KPC-2 KP1004” value with KP1004 (KPC-2) [1] is listed as “Y (MIC of 1 μg/mL to 10 μg/mL)”. Further, the Ki at CTX-M-14 is under 1 nM; on SHV-12, under 1 nM; on OXA-48, under 1 nM; on KPC-2, over 10 nM; at P99 it was over 10 nM; at Pa AmpC it was over 10 nM. The “AZT MPC4 ECL1002” value in the assay with ECL1002 [2] is “Y (MIC of 1 μg/mL to 10 μg/mL)”. Further, the “AZT MPC4 TEM-10 ec302” value in the assay with ec302 (TEM-10) [3] is on record as “Y (MIC of 1 μg/mL to 10 μg/mL)”. The “TIG MPC4 TEM-10 ec302” value with ec302 (TEM-10) [4] is “Y (key: X: MIC of less than 1 ng/mL; Y: MIC of 1 μg/mL to 10 μg/mL; Z: MIC of greater than 10 μg/mL)”. Further, the “TIG MPC4 SHV-12 KP1010” value with KP1010 (SHV-12) is on record as “X (key: X: MIC of less than 1 μg/mL; Y: MIC of 1 μg/mL to 10 μg/mL; Z: MIC of greater than 10 μg/mL)”. For the same compound, the “TIG MPC4 SHV-5 ec308” value in the assay with ec308 (SHV-5) was “X (key: X: MIC of less than 1 μg/mL; Y: MIC of 1 μg/mL to 10 μg/mL; Z: MIC of greater than 10 μg/mL)”. Also, in the assay on KP1005 (CTX-M-14), the “TIG MPC4 CTX-M-14 KP1005” value is “X (MIC of less than 1 μg/mL)”. For the same compound, the “BPM MPC1 KP1004 KPC-2” value in the assay on KP1004 (KPC-2) [5] is “X (MIC of less than 1 μg/mL)”. For the same compound, in the assay on ECL1002 [6], the “TIG MPC4 ECL1002” value was “X (MIC of less than 1 μg/mL)”. Besides, the “AZT MPC4 CMY-6 EC1010” value in the assay on EC1010 (CMY-6) [7] was “Y (key: X: MIC of less than 1 ng/mL; Y: MIC of 1 μg/mL to 10 μg/mL; Z: MIC of greater than 10 μg/mL)”. Further, in the assay on EC1010 (CMY-6) [8], the “TIG MPC4 CMY-6 EC1010” value is “X (MIC of less than 1 μg/mL)”. In the assay with KP1086 (OXA-48), the “BPM MPC1 OXA-48 KP1086” value is listed as “Y (MIC of 1 μg/mL to 10 μg/mL)”. Besides, the “TIG MPC4 CTX-M-15 KP1009” value with KP1009 (CTX-M-15) is “X (MIC of less than 1 μg/mL)”.
